From US10485814B2, “Nicotinamide riboside analogs and pharmaceutical compositions and uses thereof” (GlaxoSmithKline Intellectual Property (No. 2) Limited, priority 2014, dated 2019)
Entries after “also recorded” stand apart in the source; their conditions may differ.

What was measured:
[1] = Gravimetric Vapor Sorption (GVS); type: physicochemical; details: 90% RH, 25° C.
Procedure: Gravimetric Vapor Sorption (GVS): Samples were analyzed using a VTI corporation (now part of TA Instruments) SGA-100 with Cahn microbalance equipped with quartz sample and reference pans. Samples were dried in the SGA-100 under dry nitrogen for 5 hours at 25° C. followed by a moisture absorption step ramp from 5% relative humidity (RH) to 95% or 90% RH followed by a desorption step ramp back to 5% or 10% RH (all steps at 25° C.). The samples were held at each % RH step for 4 hours.

[2] = system: C57BL/6 DIO mice; assay: NRH triacetate efficacy in DIO (Diet-Induced Obesity) mice; type: in vivo
Procedure: C57BL/6 DIO mice and lean controls were purchased from Taconic (Hudson, N.Y.). All mice were fed Purina 5001 chow ad libitum from weaning until 6 weeks of age, then DIO mice were fed a diet containing 60% fat, ad libitum. When the mice were 18 weeks old, dosing was begun. Mice were segregated into groups of 8, with group A receiving vehicle (1:1 (v:v) PEG400: water), group B receiving 100 mg/kg nicotinamide riboside hydride triacetate as a solution in vehicle, group C receiving 500 mg/kg nicotinamide riboside hydride triacetate as a solution in vehicle, and group D (chow-fed lean control mice) receiving vehicle. The mice were dosed once per day via oral gavage for six weeks. After three weeks of dosing, body weights, post-prandial blood glucose, and post-prandial blood insulin levels were measured using commercially available kits. After four weeks of dosing, fasted blood glucose and fasted blood insulin levels were measured. Nicotinamide riboside and NAD levels were measured after four weeks of dosing, using the same extraction and LCMS protocol as described in Example 21 with NAD giving an LC retention time=2.5 min, MS Q1 peak, m/z=664(M+H)+, Q3 peak, m/z=428 (M-Cl1H13N2O4). Statistical analysis was performed using one-way ANOVA, and Dunnett's post test.
Chow-fed mice were used as non-diabetic controls.

[3] = Plasma hydrolysis of nicotinamide riboside analogs to NR (incubation with rat plasma, LC/MS/MS); type: in vitro ADME; details: 10 mM, incubated 30 min at 37° C.
Procedure: Compounds were diluted with rat plasma to a concentration of 10 millimolar (mM). Samples were incubated for 30 min at 37° C., taking 50 microL aliquots for analysis at 0 and 30 min. The aliquots were loaded onto a deep 96 well plate, then 350 microL of 0.1% (v:v) formic acid in acetonitrile was added to each well. The plate was covered and sealed to prevent evaporation, then it was placed on an orbital plate shaker set to 800-900 rps for 5-10 minutes. Next, the plate was centrifuged at around 3000 rpm for 5 min to provide a clear supernatant. For LC/MS/MS analysis, 200 microL of supernatant from each well was transferred onto a clean plate, which was subsequently capped and placed into an autosampler.
(§1) LCMS Conditions. For each well, a 10 microL sample was injected via autosampler onto a Chromolithe Performance, RP-18e (100×4.6 mm) column, and eluted with a binary gradient. Solvent A=0.1% formic acid, 0.1% N,N-dibutyl-N-methylamine (DBME) in 2 mM aqueous ammonium acetate (1:1:1000 v:v:v). Solvent B=0.1% formic acid in acetonitrile (1:1000 v:v). The solvent gradient was as follows: 0-0.22 min, 95:5 A:B; […], 95:5 A:B to 30:70 A:B (linear gradient); 5.05-6.05 min, 30:70 A:B; 6.05-6.60 min, 30:70 A:B to 95:5 A:B (linear gradient); 6.60-7.15 min, 95:5 A:B; stop elution at 7.15 min. Nicotinamide riboside eluted at approximately 1.7 min. A triple-quadrupole mass spectrometer was employed for peak identification. The identity of the analyte was confirmed by MS observation of a Q1 peak at m/z=255 (M)^+, and a Q3 peak at m/z=123.1 (M-C5H8O4)^+.
The results are shown in FIG. 3, with the release of free nicotinamide riboside measured using by HPLC-MS at 0, 30, and 60 minute time points (columns 5, 6, and 7 of table shown in FIG. 3). For each of NR esters in Table 3, except nicotinamide riboside tribenzoate, nicotinamide riboside was detected at the 30 minute time point.

[4] = system: HaCaT cells; assay: H2O2-induced reactive oxygen species (ROS) in HaCaT cells (CellROX deep red); type: cell-based, human
Procedure: HaCaT cells were grown as described in example 23 and were seeded in 96-well plates (Nunc™ black with optical bottom, Thermo Fisher Scientific, Inc., Waltham, Mass.) with a density at 2×10^4 cells per well and 100 μl medium in each well, and grown overnight before treatments. Stock solutions of NRH and other test compounds were prepared and diluted to 2× of final treatment concentrations in DMEM medium in 96-well storage plate as indicated in the FIG. 11. HaCaT Cells were treated in triplicates by adding 100 μl of diluted solutions of test compounds (2×) to each well containing 100 μl medium already. Cells were incubated in the presence of test compounds for 3 hrs. At the end of 3 hr incubation, cells were washed once with 200 μl DPBS with Ca^++ and Mg^++ (Life Technologies) and then fed with 100 μl DMEM medium each well containing H2O2 at 250 μM (as a ROS (reactive oxygen species) inducer, Sigma). After 30 min incubation, cells were washed once with 200 μl DPBS with Ca^++ and Mg^++ and CellROX deep red reagent (2.5 mM stock solution, Life Technologies) was added to the medium to a final concentration of 5 μM. After 1 hr incubation at 37° C., 5% CO2, Cells were washed for 3 times with DPBS, fluorescence signal was read at Ex. 640 nm and Em. 665 nm in Biotek Synergy H4 microplate reader (BioTek, Winooski, Vt.). Untreated cells were served as controls (normalized to 1). All the treated samples were normalized to the untreated control.

[5] = Plasma/blood nicotinamide riboside levels in orally dosed mice (LCMS); type: in vivo; details: oral gavage 500 mg/kg in PBS; for plasma nicotinamide riboside levels: both 2 h and 6 h post-dose
Procedure: Compounds were suspended in phospho-buffered saline (PBS) solution at 125 mg/mL. Eight mice were dosed via oral gavage with study compound at 500 mg/kg, (20 mg compound in 160 microL of PBS for a 40 g mouse). Four mice were euthanized via CO2 asphyxiation at 2 h post-dose, then the remaining four were euthanized at 6 h post-dose, and blood was collected immediately following euthanasia via cardiac puncture, orbital bleed, or tail vein nick. Approximately 600 microL of blood was collected from each mouse. The blood samples were diluted with 5 volumes of 70% (1% sulfosalicylic acid/1 microM DTE/10 microM CD-38 inhibitor)/30% (37% 10 mM aqueous ammonium bicarbonate/63% acetonitrile). The mixture was vortexed, then centrifuged at 3000 rpm for 10 min at 4° C. to give a transparent supernatant. A 10 microL portion of the supernatant was analyzed by LCMS, using the conditions below.
as §1, with “injected” for “injected via autosampler”, “A:B;” for “A:B; stop”, “elution was stopped” for “elution”, “(M)+,” for “(M)^+,”
In the bar graph in FIG. 5, compounds are shown on the x-axis, and comparative LCMS signal is shown on the y-axis; with each compound dosed in mice at 500 mg study compound per 1000 g mouse as a solution or suspension in phospho-buffered saline solution (PBS) (A=blank control (PBS), B=nicotinic acid riboside hydride ethyl ester triacetate, C=Nicotinamide riboside hydride triisobutyrate, D=Nicotinamide riboside hydride tri-n-butyrate, E=Nicotinamide riboside hydride tripropionate, F=nicotinamide riboside hydride tribenzoate). As shown, samples were taken 2 hours and 6 hours post dose. Also as shown, samples were kept cold (4° C.) or at room temperature (approximately 23° C.) before analysis.

[6] = 100 and 500 mg/kg once per day orally, after four weeks of dosing
[7] = oral gavage once per day 100 or 500 mg/kg, post-prandial, after three weeks of dosing

## CC(=O)OC[C@H]1O[C@@H](N2C=CCC(C(N)=O)=C2)[C@H](OC(C)=O)[C@@H]1OC(C)=O [NRH triacetate, (2R,3R,4R,5R)-2-(acetoxymethyl)-5-(3-carbamoylpyridin-1(4H)-yl)tetrahydrofuran-3,4-diyl diacetate]
[1]
  GVS weight gain from the dried state: greater than 12%
[2]; [6]
  blood NAD levels: rose in a dose-dependent manner; also recorded: rise in a NRH-triacetate dose-dependent manner
  blood nicotinamide riboside levels: rose in a dose-dependent manner; also recorded: rise in a NRH-triacetate dose-dependent manner
[2]; [7]
  blood glucose levels: reduced
  blood insulin levels: reduced
[3]
  conversion to free nicotinamide riboside: converted to free nicotinamide riboside to a significant degree

## OO [Example H2O2]
[4]; 250 μM H2O2, 30 min, normalized to untreated control
  level of ROS: ~6 fold

## NC(=O)C1=CN([C@@H]2O[C@H](COC(=O)c3ccccc3)[C@@H](OC(=O)c3ccccc3)[C@H]2OC(=O)c2ccccc2)C=CC1 [NRH tribenzoate, (2R,3R,4R,5R)-2-((benzoyloxy)methyl)-5-(3-carbamoylpyridin-1(4H)-yl)tetrahydrofuran-3,4-diyl dibenzoate]
[3]
  conversion to free nicotinamide riboside: not significantly converted to free nicotinamide riboside
[5]; 2 h post-dose
  nicotinamide riboside level: only a very modest increase

## CCCC(=O)OC[C@H]1O[C@@H](N2C=CCC(C(N)=O)=C2)[C@H](OC(=O)CCC)[C@@H]1OC(=O)CCC [NRH tributyrate, (2R,3R,4R,5R)-2-((butyryloxy)methyl)-5-(3-carbamoylpyridin-1(4H)-yl)tetrahydrofuran-3,4-diyl dibutyrate]
[3]
  conversion to free nicotinamide riboside: converted to free nicotinamide riboside to a significant degree
[5]
  plasma nicotinamide riboside levels: raised plasma nicotinamide riboside levels substantially

## OCCc1ccc(O)c(O)c1 [Hydroxyterosol]
[4]; 3 hr pre-incubation then 250 μM H2O2, Hydroxyterosol 0.005%, niacinamide 4.5 mM, NRH several concentrations
  H2O2-induced ROS: reduced H2O2-induced ROS

## CCC(=O)OC[C@H]1O[C@@H](N2C=CCC(C(N)=O)=C2)[C@H](OC(=O)CC)[C@@H]1OC(=O)CC [NRH tripropionate, (2R,3R,4R,5R)-2-(3-carbamoylpyridin-1(4H)-yl)-5 ((propionyloxy)methyl) tetrahydrofuran-3,4-diyl dipropionate]
[3]
  conversion to free nicotinamide riboside: converted to free nicotinamide riboside to a significant degree
[5]
  plasma nicotinamide riboside levels: raised plasma nicotinamide riboside levels substantially

## CC(C)C(=O)OC[C@H]1O[C@@H](N2C=CCC(C(N)=O)=C2)[C@H](OC(=O)C(C)C)[C@@H]1OC(=O)C(C)C [NRH triisobutyrate, (2R,3R,4R,5R)-2-(3-carbamoylpyridin-1(4H)-yl)-5-((isobutyryloxy)methyl)-tetrahydrofuran-3,4-diyl bis(2-methylpropanoate)]
[3]
  conversion to free nicotinamide riboside: converted to free nicotinamide riboside to a significant degree
[5]
  plasma nicotinamide riboside levels: raised plasma nicotinamide riboside levels substantially
